Measurements reported in patent US20260306644A1, “ANTIBODY RECRUITING MOLECULES FOR THE TREATMENT OF CORONAVIRUS DISEASE-19” (priority 2023, published 2026).
“And” between values parts separate entries of the source, which are not always exact repeats. Equal entries are not always repeated. Positions of bridges follow the written chain, without caps; N, C: chain ends. Non-standard residues stand in square brackets, D forms with d. Residues, ends and D or L forms follow the SMILES beside them. No end group written: not given here. Tic = O=C(O)[C@@H]1Cc2ccccc2CN1; Aib = CC(C)(N)C(=O)O

What follows are molecules tested against T1, SARS-CoV-2 Spike A (wild-type) (Severe acute respiratory syndrome coronavirus 2, UniProt P0DTC2) (assay: MSD ACE2 competition assay (inhibition of Spike binding with ACE2, ECL), A (wild-type)). Details: IC50 Wild Type, Wild Type Spike.
T1 construct: purchased Meso Scale Diagnostics, LLC V-PLEX SARS-CoV-2 Panel 13 (ACE2) Kit / Panel 23 (ACE2) Kit

Molecule	IC50
CC[C@H](C)[C@H](NC(=O)[C@H](CCCCN)NC(=O)[C@H](CCC(N)=O)NC(C)=O)C(=O)N[C@@H](Cc1ccc(O)cc1)C(=O)N[C@@H](CCC(=O)O)C(=O)N[C@H](C(=O)N[C@@H](CCSC)C(=O)N[C@@H](CCCNC(=N)N)C(=O)N[C@@H](CC(C)C)C(=O)N[C@H]1CSSC[C@@H](C(=O)N[C@@H](CCSC)C(=O)N[C@@H](CCCNC(=N)N)C(=O)N[C@H](C(=O)N[C@@H](CO)C(=O)N[C@@H](CC(=O)O)C(=O)N[C@@H](CC(C)C)C(=O)N[C@H](C(=O)N[C@@H](Cc2ccc(O)cc2)C(=O)N[C@@H](CCC(=O)O)C(=O)N[C@@H](Cc2ccccc2)C(=O)N[C@@H](CCSC)C(=O)N[C@@H](CCCCN)C(=O)N[C@@H](CCCCN)C(=O)NCC(N)=O)[C@@H](C)CC)C(C)C)NC(=O)[C@H](C)NC(=O)[C@H](CCC(=O)O)NC(=O)[C@H](C)NC(=O)[C@H](Cc2c[nH]cn2)NC(=O)CNC(=O)[C@H](CC(C)C)NC(=O)[C@H](CCC(=O)O)NC(=O)[C@H](CC(=O)O)NC1=O)[C@@H](C)CC [Compound 178] (Ac-QKIYEIMRLCDELGHAEACMRVSDLIYEFMKKG-NH2; disulfide 10-19)	> 10000 nM
CC[C@H](C)[C@H](N)C(=O)N[C@@H](CC(C)C)C(=O)N[C@@H](CCC(N)=O)C(=O)N[C@@H](CCCCN)C(=O)N[C@H](C(=O)N[C@@H](Cc1ccc(O)cc1)C(=O)N[C@@H](CCC(=O)O)C(=O)N[C@H](C(=O)N[C@@H](CCSC)C(=O)N[C@@H](CCCNC(=N)N)C(=O)N[C@@H](CC(C)C)C(=O)N[C@H]1CSSC[C@@H](C(=O)N[C@@H](CCSC)C(=O)N[C@@H](CCCNC(=N)N)C(=O)N[C@H](C(=O)N[C@@H](CO)C(=O)N[C@@H](CC(=O)O)C(=O)N[C@@H](CC(C)C)C(=O)N[C@H](C(=O)N[C@@H](Cc2ccc(O)cc2)C(=O)N[C@@H](CCC(=O)O)C(=O)N[C@@H](Cc2ccccc2)C(=O)N[C@@H](CCSC)C(=O)N[C@@H](CCCCN)C(=O)N[C@@H](CCCCN)C(=O)NCC(N)=O)[C@@H](C)CC)C(C)C)NC(=O)[C@H](C)NC(=O)[C@H](CCC(=O)O)NC(=O)[C@H](C)NC(=O)[C@H](Cc2c[nH]cn2)NC(=O)CNC(=O)[C@H](CC(C)C)NC(=O)[C@H](CCC(=O)O)NC(=O)[C@H](CC(=O)O)NC1=O)[C@@H](C)CC)[C@@H](C)CC [Compound 179] (H-ILQKIYEIMRLCDELGHAEACMRVSDLIYEFMKKG-NH2; disulfide 12-21)	152 nM and 168 nM
CC[C@H](C)[C@H](NC(C)=O)C(=O)N[C@@H](CC(C)C)C(=O)N[C@@H](CCC(N)=O)C(=O)N[C@@H](CCCCN)C(=O)N[C@H](C(=O)N[C@@H](Cc1ccc(O)cc1)C(=O)N[C@@H](CCC(=O)O)C(=O)N[C@H](C(=O)N[C@@H](CCSC)C(=O)N[C@@H](CCCNC(=N)N)C(=O)N[C@@H](CC(C)C)C(=O)N[C@H]1CSSC[C@@H](C(=O)N[C@@H](CCSC)C(=O)N[C@@H](CCCNC(=N)N)C(=O)N[C@H](C(=O)N[C@@H](CO)C(=O)N[C@@H](CC(=O)O)C(=O)N[C@@H](CC(C)C)C(=O)N[C@H](C(=O)N[C@@H](Cc2ccc(O)cc2)C(=O)N[C@@H](CCC(=O)O)C(=O)N[C@@H](Cc2ccccc2)C(=O)N[C@@H](CCSC)C(=O)N[C@@H](CCCCN)C(=O)N[C@@H](CCCCN)C(=O)NCC(N)=O)[C@@H](C)CC)C(C)C)NC(=O)[C@H](C)NC(=O)[C@H](CCC(=O)O)NC(=O)[C@H](C)NC(=O)[C@H](Cc2c[nH]cn2)NC(=O)CNC(=O)[C@H](CC(C)C)NC(=O)[C@H](CCC(=O)O)NC(=O)[C@H](CC(=O)O)NC1=O)[C@@H](C)CC)[C@@H](C)CC [Compound 180] (Ac-ILQKIYEIMRLCDELGHAEACMRVSDLIYEFMKKG-NH2; disulfide 12-21)	137 nM
{CH2CO}-ASYHLGELVW[Tic][Aib]C[dE]ILQKIYEIMRLLDELGHAEASMRVSDLIYEFMKK (thioether N-13) [Compound 131]	31.5 nM

The molecules below were run against SARS-CoV-2 Spike protein (Severe acute respiratory syndrome coronavirus 2, UniProt P0DTC2) (assay: Ternary binding of SARS-CoV-2 Spike protein (293T cells expressing Spike-GFP, IgG-AF647, flow cytometry)). Details: 293T cells expressing Spike-GFP; IgG-AF647 10 μg/ml; repeat values/batches listed separately; read-out: SARS-CoV-2 Ternary binding EC50.
Assay type: cell-based
Protocol: 293T cells stably expressing SARS-CoV-2 Spike-GFP protein on their surface were incubated with a concentration range of compound for 30 minutes at 37° C.-5% CO2 in Roswell Park Memorial Institute Medium (RPMI)-5% low IgG serum with 10 μg/ml IgG-Alexa Fluor® 647 (AF647). The cells were washed twice using the same medium, resuspended in phosphate-buffered saline (PBS)-1% bovine serum albumin (BSA), and acquired on Attune™ NxT Flow Cytometer. In some embodiments, mean fluorescence intensity of AF647 as well as […] AF647 positive in GFP positive gate are reported as readouts in this assay.

Molecule	EC50 [nM]
CC[C@H](C)[C@H](NC(=O)[C@H](Cc1c[nH]c2ccccc12)NC(=O)[C@H](CCC(=O)O)NC(=O)[C@H](CCCCN)NC(=O)[C@H](CC(=O)O)NC(C)=O)C(=O)N[C@@H](CC(C)C)C(=O)N[C@@H](CCC(N)=O)C(=O)N[C@@H](CCCCN)C(=O)N[C@H](C(=O)N[C@@H](Cc1ccc(O)cc1)C(=O)N[C@@H](CCC(=O)O)C(=O)N[C@H](C(=O)N[C@@H](CCSC)C(=O)N[C@@H](CCCNC(=N)N)C(=O)N[C@@H](CC(C)C)C(=O)N[C@@H](CC(C)C)C(=O)N[C@@H](CC(=O)O)C(=O)N[C@@H](CCC(=O)O)C(=O)N[C@@H](CC(C)C)C(=O)NCC(=O)NCCOCCOCCOCCOCCOCCOCCOCCOCCC(=O)NCCOCCOCCOCCOCCOCCOCCOCCOCCC(=O)N[C@@H](CC(=O)O)C(=O)N[C@H]1CSSC[C@@H](C(=O)N[C@H](C(N)=O)[C@@H](C)O)NC(=O)[C@H](Cc2c[nH]c3ccccc23)NC(=O)[C@H](C(C)C)NC(=O)[C@H](CC(C)C)NC(=O)[C@H](CCC(=O)O)NC(=O)CNC(=O)[C@H](CC(C)C)NC(=O)[C@H](Cc2c[nH]cn2)NC(=O)[C@H](Cc2c[nH]c3ccccc23)NC(=O)[C@H](C)NC1=O)[C@@H](C)CC)[C@@H](C)CC [Compound 151]	> 10
CC[C@H](C)[C@H](NC(=O)[C@H](Cc1c[nH]c2ccccc12)NC(=O)[C@H](CCC(=O)O)NC(=O)[C@H](CCCCN)NC(=O)[C@H](CC(=O)O)NC(C)=O)C(=O)N[C@@H](CC(C)C)C(=O)N[C@@H](CCC(N)=O)C(=O)N[C@@H](CCCCN)C(=O)N[C@H](C(=O)N[C@@H](Cc1ccc(O)cc1)C(=O)N[C@@H](CCC(=O)O)C(=O)N[C@H](C(=O)N[C@@H](CCSC)C(=O)N[C@@H](CCCNC(=N)N)C(=O)N[C@@H](CC(C)C)C(=O)N[C@@H](CC(C)C)C(=O)N[C@@H](CC(=O)O)C(=O)N[C@@H](CCC(=O)O)C(=O)N[C@@H](CC(C)C)C(=O)NCC(=O)N[C@@H](Cc1c[nH]cn1)C(=O)N[C@@H](C)C(=O)N[C@@H](CCC(=O)O)C(=O)N[C@@H](C)C(=O)N[C@@H](CO)C(=O)NCCOCCOCCOCCOCCOCCOCCOCCOCCC(=O)NCCOCCOCCOCCOCCOCCOCCOCCOCCC(=O)N[C@@H](CC(=O)O)C(=O)N[C@H]1CSSC[C@@H](C(=O)N[C@H](C(N)=O)[C@@H](C)O)NC(=O)[C@H](Cc2c[nH]c3ccccc23)NC(=O)[C@H](C(C)C)NC(=O)[C@H](CC(C)C)NC(=O)[C@H](CCC(=O)O)NC(=O)CNC(=O)[C@H](CC(C)C)NC(=O)[C@H](Cc2c[nH]cn2)NC(=O)[C@H](Cc2c[nH]c3ccccc23)NC(=O)[C@H](C)NC1=O)[C@@H](C)CC)[C@@H](C)CC [Compound 152]	> 100
